Test results: US11504383B2, “Crystalline forms of a Ryanodine receptor modulator and uses thereof” (ARMGO Pharma, Inc., priority 2021, dated 2022)
“Also recorded” adds a separate entry of the source.

How the values were obtained:
Assay type in all cases: physicochemical
[1] = Competitive slurry experiments mixing Form 1 and Form 2 in various solvents
Procedure: Competitive slurry experiments were performed at 15° C. (Table 5) or 40° C. (Table 6) by mixing Form 1 and Form 2 in various solvents in acetonitrile/water, acetone/water and methanol/water mixtures. […] (Table 5) or 40° C. (Table 6).

[2] = Thermogravimetric analysis (loss of mass before melting/degradation); conditions: 25° C. to 250° C. at about 10° C./minute
Procedure: Thermogravimetric analysis (TGA) was performed. A 10 to 20 mg of sample of a crystalline form of 4-[(7-methoxy-2,3-dihydro-1,4-benzothiazepin-4(5H)yl)methyl]benzoic acid hemifumarate was placed into an aluminum pan, with nitrogen purge. The sample was equilibrated at 25° C. in a temperature-controlled chamber. The sample was heated at a scan rate of about 10° C./minute to 250° C. under nitrogen purge. A TGA Q5000 thermogravimetric analysis instrument was used.

[3] = Storage stability of the polymorphs followed by XRD
Procedure: The top panel depicts the polymorph at initiation and the bottom three panels depict the polymorph after 24 months. FIG. 5 Panel A: initial control; FIG. 5 Panel B: sample stored for 2 years in open bottle in stability chambers at 25° C./60% relative humidity (RH); FIG. 5 Panel C: sample stored for 2 years in closed bottle in stability chambers at 40° C./75% RH; FIG. 5 Panel D: sample stored for 2 years in open bottle in stability chambers at 40° C./75% RH.
The top panel depicts the polymorph at initiation and the bottom panels depict the polymorph after 3, 6, 12 and 24 months.

[4] = Dynamic vapor sorption (hygroscopicity); conditions: DVS, 25° C., 0-90% relative humidity
Procedure: Dynamic vapor sorption (DVS) analysis was performed by measuring mass variation of the crystalline form of 4-[(7-methoxy-2,3-dihydro-1,4-benzothiazepin-4(5H)yl)methyl]benzoic acid hemifumarate as a function of relative humidity using a DVS intrinsic instrument. A 5 mg to 10 mg of a sample of a crystalline form of 4-[(7-methoxy-2,3-dihydro-1,4-benzothiazepin-4(5H)yl)methyl]benzoic acid, hemifumarate was placed into a sample pan of a DVS intrinsic instrument at 25° C. under controlled humidity. The mass variation was recorded as a function of relative humidity.
Measurement of DVS comprised: (a) equilibrating a sample of the crystalline form at 25° C. and 50% relative humidity in a temperature-controlled and humidity controlled chamber until mass variation is less than 0.002% per minute for 6 hours; (b) increasing the relative humidity from 50% to 90% at a rate of 10% per hour; (c) equilibrating the sample at 90% relative humidity until mass variation of less than 0.002% per minute for 6 hours is observed; (d) decreasing the relative humidity from 90% to 0% at a rate of 10% per hour; (e) equilibrating the sample at 0% relative humidity until mass variation of less than 0.002% per minute for 6 hours is observed; and (f) increasing the relative humidity from 0% to 50% at a rate of 10% per hour.

With `COc1ccc2c(c1)CN(Cc1ccc(C(=O)O)cc1)CCS2.O=C(O)/C=C/C(=O)O` [Form 1 and Form 2] the “XRD (form after competitive slurry)” value ([1]; 15° C. for 10 days, Acetone) was “Form 2”, the “XRD (form after competitive slurry)” value ([1]; 15° C. for 10 days, Acetone/water 30/70) was “Form 2” and the “XRD (form after competitive slurry)” value ([1]; 15° C. for 10 days, Acetone/water 90/10) was “Form 2”. The “XRD (form after competitive slurry)” value ([1]; 15° C. for 10 days, Acetone/water 96/4) was “Form 2”, the “XRD (form after competitive slurry)” value ([1]; 15° C. for 10 days, Acetone/water 98/2) was “Form 2” and the “XRD (form after competitive slurry)” value ([1]; 15° C. for 10 days, Acetonitrile) was “Acetonitrile solvate (Form 4)”. The “XRD (form after competitive slurry)” value ([1]; 15° C. for 10 days, Acetonitrile/water 15/85) was “Acetonitrile solvate (Form 4)”, the “XRD (form after competitive slurry)” value ([1]; 15° C. for 10 days, Acetonitrile/water 87/13) was “Acetonitrile solvate (Form 4)” and the “XRD (form after competitive slurry)” value ([1]; 15° C. for 10 days, Acetonitrile/water 94/6) was “Acetonitrile solvate (Form 4)”. For the same molecule, the “XRD (form after competitive slurry)” value ([1]; 15° C. for 10 days, Acetonitrile/water 98/2) was “Acetonitrile solvate (Form 4)”, the “XRD (form after competitive slurry)” value ([1]; 15° C. for 10 days, Methanol) was “Methanol solvate (Form 3)” and the “XRD (form after competitive slurry)” value ([1]; 15° C. for 10 days, Methanol/water 20/80) was “Form 2 + Methanol solvate”. The “XRD (form after competitive slurry)” value ([1]; 15° C. for 10 days, Methanol/water 50/50) was “Methanol solvate (Form 3)”, the “XRD (form after competitive slurry)” value ([1]; 15° C. for 10 days, Methanol/water 70/30) was “Methanol solvate (Form 3)” and the “XRD (form after competitive slurry)” value ([1]; 15° C. for 10 days, Methanol/water 95/5) was “Methanol solvate (Form 3)”. For the same molecule, the “XRD (form after competitive slurry)” value ([1]; 15° C. for 10 days, Water) was “Form 2”, the “XRD (form after competitive slurry)” value ([1]; 40° C. for 5 days, Acetone) was “Form 2” and the “XRD (form after competitive slurry)” value ([1]; 40° C. for 5 days, Acetone/water 30/70) was “Form 2”. For the same molecule, the “XRD (form after competitive slurry)” value ([1]; 40° C. for 5 days, Acetone/water 90/10) was “Form 2”, the “XRD (form after competitive slurry)” value ([1]; 40° C. for 5 days, Acetone/water 96/4) was “Form 2” and the “XRD (form after competitive slurry)” value ([1]; 40° C. for 5 days, Acetone/water 98/2) was “Form 2”. For the same molecule, the “XRD (form after competitive slurry)” value ([1]; 40° C. for 5 days, Acetonitrile) was “Acetonitrile solvate (Form 4)”, the “XRD (form after competitive slurry)” value ([1]; 40° C. for 5 days, Acetonitrile/water 15/85) was “Acetonitrile solvate (Form 4)” and the “XRD (form after competitive slurry)” value ([1]; 40° C. for 5 days, Acetonitrile/water 87/13) was “Acetonitrile solvate (Form 4)”. For the same molecule, the “XRD (form after competitive slurry)” value ([1]; 40° C. for 5 days, Acetonitrile/water 94/6) was “Acetonitrile solvate (Form 4)”, the “XRD (form after competitive slurry)” value ([1]; 40° C. for 5 days, Acetonitrile/water 98/2) was “Acetonitrile solvate (Form 4)” and the “XRD (form after competitive slurry)” value ([1]; 40° C. for 5 days, Methanol) was “Methanol solvate (Form 3)”. The “XRD (form after competitive slurry)” value ([1]; 40° C. for 5 days, Methanol/water 20/80) was “Form 2 + Methanol solvate”, the “XRD (form after competitive slurry)” value ([1]; 40° C. for 5 days, Methanol/water 50/50) was “Methanol solvate (Form 3)” and the “XRD (form after competitive slurry)” value ([1]; 40° C. for 5 days, Methanol/water 70/30) was “Methanol solvate (Form 3)”. The “XRD (form after competitive slurry)” value ([1]; 40° C. for 5 days, Methanol/water 95/5) was “Methanol solvate (Form 3)”, the “XRD (form after competitive slurry)” value ([1]; 40° C. for 5 days, Water) was “Form 2” and the “Form obtained from slurry” value ([1]; acetone/water mixtures, all tested conditions) was “converted into Form 2”. For the same molecule, the “Form obtained from slurry” value ([1]; acetonitrile/water mixtures, all tested ratios, 15° C. or 40° C.) was “converted into the acetonitrile solvate (Form 4)”, the “Form obtained from slurry” value ([1]; methanol/water (20/80 v/v)) was “a mixture of Form 2 and methanol solvate” and the “Form obtained from slurry” value ([1]; methanol/water mixtures, all tested ratios except 20/80 v/v, 15° C. or 40° C.) was “converted into the methanol solvate (Form 3)”.
In the case of `COc1ccc2c(c1)CN(Cc1ccc(C(=O)O)cc1)CCS2.O=C(O)/C=C/C(=O)O` [Form 1, 4-[(7-methoxy-2,3-dihydro-1,4-benzothiazepin-4(5H)yl)methyl]benzoic acid, hemifumarate], the “Loss of mass before melting degradation (TGA)” value [2] is reported as “about 1%”, the “Storage time without any detectable conversion into Form 2” value ([3]; XRD, FIG. 5) is reported as “at least 24 months” and the “Stability of the polymorph on storage (XRD, FIG. 5)” value ([3]; after 24 months, open bottle 25° C./60% RH, closed bottle 40° C./75% RH, open bottle 40° C./75% RH) is reported as “stable”. For the same molecule, the Hygroscopicity [4] was “slightly hygroscopic; also recorded: non-hygroscopic”.
